BigSolDB 2.1

Nc1nc(Cl)cc(Cl)n1
solubility (mole fraction)
Conditions | in 1,4-dioxane | in acetone | in acetonitrile | in cyclohexane | in ethanol | in ethyl acetate | in isopropanol | in methanol | in n-propanol | in toluene
278.15 K | – | 0.00538 | 0.00128 | – | 0.000929 | 0.00458 | 0.000517 | 0.00113 | 0.000792 | 0.000551
283.15 K | – | 0.00618 | 0.00155 | 4.26e-05 | 0.00111 | 0.00535 | 0.000645 | 0.00132 | 0.00095 | 0.000695
288.15 K | 0.0122 | 0.0073 | 0.00186 | 5.55e-05 | 0.00132 | 0.00631 | 0.000808 | 0.00158 | 0.00113 | 0.000856
293.15 K | 0.0139 | 0.00848 | 0.00223 | 7.15e-05 | 0.00158 | 0.0073 | 0.000989 | 0.00183 | 0.00136 | 0.00105
298.15 K | 0.016 | 0.0097 | 0.00265 | 9.05e-05 | 0.00183 | 0.00847 | 0.00121 | 0.00218 | 0.00163 | 0.00128
303.15 K | 0.0182 | 0.011 | 0.00314 | 0.000115 | 0.00215 | 0.00981 | 0.00148 | 0.00251 | 0.00192 | 0.00156
308.15 K | 0.0205 | 0.0126 | 0.0037 | 0.000144 | 0.00251 | 0.0113 | 0.00178 | 0.00293 | 0.00226 | 0.00188
313.15 K | 0.0233 | 0.0143 | 0.00434 | 0.000181 | 0.00293 | 0.0129 | 0.00215 | 0.00335 | 0.00265 | 0.00228
318.15 K | 0.0262 | 0.0163 | 0.00505 | 0.000224 | 0.00339 | 0.0147 | 0.00257 | 0.00389 | 0.00313 | 0.00274
